Results taken from US20190106460A1, “BINDING INHIBITORS OF THE BETA. TRANSDUCIN REPEAT-CONTAINING PROTEIN” (priority 2011, published 2019).
Like-named read-outs stand apart in the source and are kept apart here. Starred links: 1 amine or outer side, 2 acyl side, 3 side chain; linkers in the order of their positions; H or OH if unused. Non-standard residues stand in square brackets, D forms with d. Residues, ends and D or L forms follow the SMILES beside them. *: point of attachment. Phe(4-NO2) = N[C@@H](Cc1ccc([N+](=O)[O-])cc1)C(=O)O; Phe(3-F) = N[C@@H](Cc1cccc(F)c1)C(=O)O; Phe(4-F) = N[C@@H](Cc1ccc(F)cc1)C(=O)O; 1Nal = N[C@@H](Cc1cccc2ccccc12)C(=O)O; Suc = O=C(CCC(=O)[*:2])[*:1]; Ethoxycarbonyl = CCOC(=O)*

What was measured:
FBW7/Skp1 = FBW7/Skp1 (Homo sapiens, UniProt Q969H0); experiment: Selectivity assay vs other E3s: Fbw7; type: biochemical; details: for inhibition at 100 µM: value in brackets, read-out: % Inhibition Fbw7 @ (100 μM); for inhibition at 10 µM: read-out: % Inhibition Fbw7 @ 10 μM
Sequence of FBW7/Skp1 (Q969H0 whole entry, species assumed): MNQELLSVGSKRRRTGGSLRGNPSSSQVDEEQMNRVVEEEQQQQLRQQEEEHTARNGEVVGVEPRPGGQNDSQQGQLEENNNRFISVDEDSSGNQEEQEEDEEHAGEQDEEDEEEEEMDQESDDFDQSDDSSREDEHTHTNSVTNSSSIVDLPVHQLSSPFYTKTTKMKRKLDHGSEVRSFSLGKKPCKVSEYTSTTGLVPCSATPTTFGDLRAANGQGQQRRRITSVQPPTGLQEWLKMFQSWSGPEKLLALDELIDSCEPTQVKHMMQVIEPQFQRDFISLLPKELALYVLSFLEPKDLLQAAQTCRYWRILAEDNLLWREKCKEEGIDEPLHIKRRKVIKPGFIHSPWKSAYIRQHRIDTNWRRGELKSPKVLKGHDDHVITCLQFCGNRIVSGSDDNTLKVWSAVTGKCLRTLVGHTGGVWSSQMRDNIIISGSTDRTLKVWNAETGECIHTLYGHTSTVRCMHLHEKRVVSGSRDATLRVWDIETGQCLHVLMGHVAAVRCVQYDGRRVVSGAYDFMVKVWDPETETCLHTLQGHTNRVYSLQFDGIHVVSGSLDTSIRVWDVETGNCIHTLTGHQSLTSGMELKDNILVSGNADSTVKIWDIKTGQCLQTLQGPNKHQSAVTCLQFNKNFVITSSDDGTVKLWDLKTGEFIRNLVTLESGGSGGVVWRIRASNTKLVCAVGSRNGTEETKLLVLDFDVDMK
Sequence of FBW7/Skp1 (P63208 whole entry partner, species assumed): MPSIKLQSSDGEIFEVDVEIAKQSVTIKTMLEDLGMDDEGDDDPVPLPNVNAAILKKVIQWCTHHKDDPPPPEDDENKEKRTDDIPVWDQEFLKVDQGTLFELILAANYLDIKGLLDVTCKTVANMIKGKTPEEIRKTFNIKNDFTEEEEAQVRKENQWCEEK
Sequence of FBW7/Skp1 (Q13616 whole entry partner, species assumed): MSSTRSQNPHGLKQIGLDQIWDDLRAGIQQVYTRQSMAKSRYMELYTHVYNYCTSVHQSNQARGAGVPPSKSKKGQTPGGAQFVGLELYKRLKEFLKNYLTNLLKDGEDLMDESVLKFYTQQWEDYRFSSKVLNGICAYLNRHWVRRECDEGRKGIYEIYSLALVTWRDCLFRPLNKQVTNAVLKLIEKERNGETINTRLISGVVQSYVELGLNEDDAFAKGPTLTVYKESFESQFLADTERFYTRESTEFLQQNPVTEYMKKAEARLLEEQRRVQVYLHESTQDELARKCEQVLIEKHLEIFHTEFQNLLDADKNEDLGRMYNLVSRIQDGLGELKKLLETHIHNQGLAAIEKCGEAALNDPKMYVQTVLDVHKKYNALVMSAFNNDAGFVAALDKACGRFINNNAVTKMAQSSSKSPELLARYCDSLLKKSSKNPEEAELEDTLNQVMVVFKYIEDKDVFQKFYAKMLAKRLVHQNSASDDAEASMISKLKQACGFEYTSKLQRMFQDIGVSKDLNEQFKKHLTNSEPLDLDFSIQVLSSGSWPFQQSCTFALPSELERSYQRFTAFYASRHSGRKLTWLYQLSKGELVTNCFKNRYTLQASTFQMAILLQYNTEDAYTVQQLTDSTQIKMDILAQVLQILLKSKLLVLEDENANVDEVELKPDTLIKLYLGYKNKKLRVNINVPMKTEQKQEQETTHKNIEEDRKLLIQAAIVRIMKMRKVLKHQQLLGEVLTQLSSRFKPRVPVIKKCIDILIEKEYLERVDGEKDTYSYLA
Sequence of FBW7/Skp1 (P62877 whole entry partner, species assumed): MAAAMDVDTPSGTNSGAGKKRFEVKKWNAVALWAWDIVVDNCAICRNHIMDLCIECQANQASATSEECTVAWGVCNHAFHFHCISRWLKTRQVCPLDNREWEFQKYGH
Procedure, shortened: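 FBW7/Skp1 E3 ubiquitination of cyclin E substrate in 50 mM HEPES pH 7.5, 75 mM NaCl, 1 mM DTT; preincubated 30 min at room temperature before Mg/ATP, then 60 min more. Products resolved by 10% SDS-PAGE and immunoblotted with anti-cyclin E.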

βTrCP [1] = target: βTrCP (Homo sapiens, UniProt Q9Y297); experiment: Fluorescence polarisation (FP) binding assay with fluorescein-tagged IκB peptide
Target sequence in this assay (P63208 whole entry partner, one chain of several): as the sequence (P63208 whole entry partner, species assumed) above

βTrCP/Skp1 = βTrCP/Skp1 (Homo sapiens, UniProt Q9Y297); experiment: Surface plasmon resonance (SPR), Biacore T200; type: binding; details: apparent KD averaged over both surfaces
Sequence of βTrCP/Skp1 (P63208 whole entry partner, one chain of several): as the sequence (P63208 whole entry partner, species assumed) above
Method: Surface Plasmon Resonance (SPR)
Experiments were carried out using the Biacore T200 SPR detection system. This system exploits the phenomenon of surface plasmon resonance (SPR) to monitor interactions between molecules. The system involves the attachment of one interacting partner to a surface (an appropriate sensor chip) while the other interacting partner is passed over it in solution. The binding of molecules to the surface generates an SPR response (measured in response units (RU)) that is proportional to the mass and amount of the biomolecule (in this case βTrCP/Skp1) bound to the chip. The relative responses obtained are dependent on the concentration of the molecule binding. At RUmaximum, the attached protein's binding sites are saturated. Binding events can be followed in real time and a range of interaction characteristics can be determined including kinetics, specificity of interactions and the concentration of specific molecules in a sample.
As βTrCP was His tagged, an NTA sensor chip was used. This sensor chip has a dextran surface matrix with immobilized nitrilotriacetic acid (NTA) which provides a means of capturing polyHis-tagged proteins through Nickel chelation. It was hoped that addition of Ni^+ would orient the protein in a specific (and hopefully active) manner as it is covalently immobilised via amine coupling. Addition of EDC:NHS (N-ethyl-N′-(3-[…])-carbodiimide:N-hydroxysuccinimide) converts carboxyl groups on the dextran sensor chip surface to succinamide esters which readily form covalent bonds with primary amines. Each chip contains four flow cells (each a separate surface) which means that compounds/peptides can be passed over different forms of βTrCP and a reference surface simultaneously. If binding to βTrCP is occurring, responses should be the same (accounting for differences in density of surface etc) on each surface.
Two different βTrCP protein complexes were immobilised on to an NTA biacore sensor chip. One included the GSTSkp1 fusion (HisβTrCP/GSTSkp1) while the other was immobilised after GST Removal by Thrombin (HisβTrCP/Skp1). To ensure that the GST moiety is completely removed from Skp1, βTrCP/GSTSkp1 was incubated with thrombin ((10units/mg protein) for at least 16 hours at room temperature in 10mMHEPES 150mMNaCl pH7.4+2 mM CaCl2. Thrombin and GST were removed from βTrCP/Skp1 by buffer exchange through a 50 KDa MWCO vivaspin concentrator.
Protein Immobilisation Procedure for NTA Chip
Ni+ (500 μM NiCl) loaded on to surface at a flow rate of 5 μl/min for 60s. EDC/NHS (activates dextran carboxylates) loaded at a flow rate of 5 μl/min for 240s. Protein ([protein]=100 nM to 1 μM) loaded at a flow rate of 10 μl/min for 180s. Strip solution (350 μM EDTA/1M NaCl) added at flow rate of 10 μl/min for 30s (to chelate excess Ni+ and remove non-covalently bound protein e.g. protein oligomers). Quench solution (ethanolamine) at flow rate of 5 μl/min for 240s (to deactivate surface molecules on the chip that have not crosslinked protein). The immobilisation buffer used was 10 mM HEPES pH 7.4, 150 mM NaCl,
GST Capture Procedure (for Immobilisation Via GSTSkp1)
EDC:NHS was injected at 5 μl/min for 4 min to activate surface for amine coupling (this converts carboxyl groups on the surface of the chip to succinamide esters that react with primary amines)
Anti-GST (60 μg/ml). was loaded at 10 μl/min for 4 min resulting in an increase in response units of 6730 (Biacore manual states it should result in ˜7000)
Ethanolamine was injected at 5 μl/min for 5 min to deactivate remaining unreacted esters at surface (quenching).
Injection of a low concentration of purified GST (from kit) was injected for 3 mins at 5 μl/min before running a regeneration cycle with glycine pH2.0 that disrupts the antibody-GST interaction. […]

Skp2 = Skp2 (Homo sapiens, UniProt Q13309); experiment: Selectivity assay vs other E3s: Skp2; type: biochemical; details: for inhibition at 100 µM: value in brackets, read-out: % Inhibition Skp2 @ (100 μM); for inhibition at 10 µM: read-out: % Inhibition Skp2 @ 10 μM
Sequence of Skp2 (Q13309 whole entry, species assumed): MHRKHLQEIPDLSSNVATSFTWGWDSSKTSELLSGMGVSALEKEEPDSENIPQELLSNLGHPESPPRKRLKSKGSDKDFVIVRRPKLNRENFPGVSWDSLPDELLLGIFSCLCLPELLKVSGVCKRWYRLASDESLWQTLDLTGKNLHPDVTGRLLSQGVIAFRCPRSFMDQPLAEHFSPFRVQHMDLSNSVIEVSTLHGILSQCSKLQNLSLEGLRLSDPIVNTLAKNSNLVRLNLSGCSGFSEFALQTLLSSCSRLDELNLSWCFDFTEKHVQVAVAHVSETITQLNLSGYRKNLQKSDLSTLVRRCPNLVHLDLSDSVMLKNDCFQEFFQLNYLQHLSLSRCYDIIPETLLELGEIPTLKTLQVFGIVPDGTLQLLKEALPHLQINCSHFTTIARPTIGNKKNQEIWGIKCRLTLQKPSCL
Sequence of Skp2 (P63208 whole entry partner, species assumed): as the sequence (P63208 whole entry partner, species assumed) above
Sequence of Skp2 (Q13616 whole entry partner, species assumed): as the sequence (Q13616 whole entry partner, species assumed) above
Sequence of Skp2 (P62877 whole entry partner, species assumed): as the sequence (P62877 whole entry partner, species assumed) above
Procedure, shortened: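 Skp2 ubiquitination was measured in master mixes of 50 mM Herpes buffer, pH 7.5, with 75 mM NaCl and 1 mM DTT, lacking Mg or ATP. Test compounds were preincubated for 30 minutes at room temperature, Mg/ATP was added for a further 60 minutes, and reactions were boiled in SDS loading buffer, resolved on 10% SDS-PAGE, blotted to nitrocellulose and probed with HRP-Streptavidin.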

βTrCP [2] = target: T1, βTrCP (Homo sapiens, UniProt Q9Y297); experiment: Biotin pull down assay with biotinylated IκB peptide; type: binding; details: for Biotin Pulldown Assay 10 μM: 10 μM compound; for Biotin Pulldown Assay 100 μM: 100 μM compound
T1 sequence (Q9Y297 1-605): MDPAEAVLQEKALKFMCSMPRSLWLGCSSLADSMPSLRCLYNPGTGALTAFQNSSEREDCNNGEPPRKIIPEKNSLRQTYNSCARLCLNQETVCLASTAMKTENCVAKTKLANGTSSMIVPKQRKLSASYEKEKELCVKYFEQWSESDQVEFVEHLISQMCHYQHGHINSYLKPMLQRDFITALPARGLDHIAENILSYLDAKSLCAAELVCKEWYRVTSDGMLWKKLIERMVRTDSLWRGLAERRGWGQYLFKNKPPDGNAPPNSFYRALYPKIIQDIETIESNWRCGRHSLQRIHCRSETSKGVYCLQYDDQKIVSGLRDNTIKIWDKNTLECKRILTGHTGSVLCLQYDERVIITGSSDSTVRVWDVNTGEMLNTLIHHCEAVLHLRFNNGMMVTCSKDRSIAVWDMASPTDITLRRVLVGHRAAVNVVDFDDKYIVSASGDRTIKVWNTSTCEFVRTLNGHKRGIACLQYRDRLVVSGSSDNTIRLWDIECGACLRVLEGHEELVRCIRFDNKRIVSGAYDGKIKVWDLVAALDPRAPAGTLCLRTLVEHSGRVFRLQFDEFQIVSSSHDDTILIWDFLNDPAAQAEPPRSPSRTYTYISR

β-TrCP1/Skp1 = β-TrCP1/Skp1 (Homo sapiens, UniProt Q9Y297); experiment: βTrCP ubiquitination assay (Ub assay); type: biochemical; details: for Ub Assay 10 μM: 10 μM compound; for Ub Assay 100 μM: 100 μM compound
Sequence of β-TrCP1/Skp1 (P63208 2-163 partner limits assumed, one chain of several): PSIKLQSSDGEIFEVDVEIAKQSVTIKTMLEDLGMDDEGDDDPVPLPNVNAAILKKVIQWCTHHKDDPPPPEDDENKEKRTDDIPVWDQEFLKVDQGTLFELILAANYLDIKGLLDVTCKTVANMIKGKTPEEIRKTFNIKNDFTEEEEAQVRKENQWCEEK
Procedure, shortened: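 Compounds tested in duplicate at 10 and 100 μM in βTrCP(IκBα) and βTrCP(β-catenin) cascades with UBE1 E1, UbcH3 E2 and biotinylated ubiquitin; substrate phosphorylation done without compound, ubiquitination steps with compound. Product captured on anti-c-Myc plates and detected with SA-Ru TAG by MSD electrochemiluminescence.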

[3] = Table 11, with spread, read-out: FP IC50/μM
[4] = Tables 1, 3, 7, 8, 10 nM fluorescein-tagged IκB peptide, read-out: FP Assay IC50/μM

| SMILES | inhibition at 100 µM (FBW7/Skp1) [%] | inhibition at 10 µM (FBW7/Skp1) [%] | IC50 (βTrCP [1]; [3]) [µM] | Kd (βTrCP/Skp1) [µM] | inhibition at 100 µM (Skp2) [%] | inhibition at 10 µM (Skp2) [%] | Biotin Pulldown Assay 10 μM (βTrCP [2]) | Biotin Pulldown Assay 100 μM (βTrCP [2]) | Ub Assay 10 μM (β-TrCP1/Skp1) | Ub Assay 100 μM (β-TrCP1/Skp1) | IC50 (βTrCP [1]; [4]) [µM] |
| --- | --- | --- | --- | --- | --- | --- | --- | --- | --- | --- | --- |
| CCOC(=O)N[C@H](CC(=O)O)C(=O)N[C@@H](CCC(=O)O)C(=O)NCC(=O)N[C@@H](Cc1cccc(F)c1)C(=O)N[C@@H](Cc1c[nH]c2ccccc12)C(=O)N[C@@H](CCC(=O)O)C(N)=O [UBP023, EtO(CO)-dEGF(3F)WE-NH2] (Ethoxycarbonyl-[dD]EG[Phe(3-F)]WE-NH2) | 12 | 0 | 0.045 ± 0.005 | 0.034 ± 0.017 | 4 | 4 | reduces/ | inhibits | inhibits/ | inhibits |  |
| NC(=O)CC[C@H](NC(=O)CCC(=O)O)C(=O)NCC(=O)N[C@@H](Cc1cccc(F)c1)C(=O)N[C@@H](Cc1ccc([N+](=O)[O-])cc1)C(=O)N[C@@H](CCC(=O)O)C(N)=O [UBP012, Suc-QGF(3F)F(4NO2)E-NH2] | 0 | 0 | 2.56 ± 0.374 | 5.49 ± 2.27 | 0 | 0 | no effect/ | reduces | no effect/ | inhibits |  |
| NC(=O)[C@H](CCC(=O)O)NC(=O)[C@H](Cc1cccc2ccccc12)NC(=O)[C@H](Cc1cccc(F)c1)NC(=O)CNC(=O)[C@H](CCC(=O)O)NC(=O)CCC(=O)O [UBP010, Suc-EGF(3F)1NalE-NH2] (Suc-EG[Phe(3-F)][1Nal]E-NH2) | 0 | 3 | 0.157 ± 0.037 | 0.32 ± 0.24 | 12 | 0 | inhibits/ | inhibits | inhibits/ | inhibits | 0.157 |
| NC(=O)[C@H](CCC(=O)O)NC(=O)[C@H](Cc1ccc([N+](=O)[O-])cc1)NC(=O)[C@H](Cc1ccc(F)cc1)NC(=O)CNC(=O)[C@H](CCC(=O)O)NC(=O)CCC(=O)O [UBP005, Suc-EGF(4F)F(4NO2)E-NH2] (Suc-EG[Phe(4-F)][Phe(4-NO2)]E-NH2) | 0 | 0 | 1.21 ± 0.093 | 0.507 ± 0.267 | 0 | 0 | no effect/ | inhibits | reduces/ | inhibits |  |
| NC(=O)[C@H](CCC(=O)O)NC(=O)[C@H](Cc1c[nH]c2ccccc12)NC(=O)[C@H](Cc1cccc(F)c1)NC(=O)CNC(=O)[C@H](CCC(=O)O)NC(=O)CCC(=O)O [UBP014, Suc-EGF(3F)WE-NH2] (Suc-EG[Phe(3-F)]WE-NH2) | 0 | 0 | 0.095 ± 0.009 | 0.455 ± 0.03 | 6 | 5 | reduces/ | inhibits | reduces/ | inhibits | 0.095 |
| NC(=O)[C@H](CCC(=O)O)NC(=O)[C@H](Cc1cccc2ccccc12)NC(=O)[C@H](Cc1ccc([N+](=O)[O-])cc1)NC(=O)CNC(=O)[C@H](CCC(=O)O)NC(=O)CCC(=O)O [UBP011, Suc-EGF(4NO2)1NalE-NH2] (Suc-EG[Phe(4-NO2)][1Nal]E-NH2) | 28 | 14 | 1.31 ± 0.198 | 1.96 ± 0.635 | 6 | 12 | reduces/ | inhibits | reduces/ | inhibits |  |
| NC(=O)[C@H](CCC(=O)O)NC(=O)[C@H](Cc1ccc([N+](=O)[O-])cc1)NC(=O)[C@H](Cc1cccc(F)c1)NC(=O)CNC(=O)[C@H](CCC(=O)O)NC(=O)CCC(=O)O [UBP004, Suc-EGF(3F)F(4NO2)E-NH2] (Suc-EG[Phe(3-F)][Phe(4-NO2)]E-NH2) | 2 | 0 | 0.522 ± 0.049 | 4.53 ± 0.681 | 3 | 0 | reduces/ | inhibits | inhibits/ | inhibits |  |
